Columns and labels:
GP2d cells (KRAS G12D) = assay: Cell-based pERK HTRF assay in GP2d cell (Biological Example 2); settings: GP2d (KRAS G12D) cells, pERK HTRF
Summary of the method: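 60 min compound, 0.25% DMSO, 9-pt half-log curve from 1 μM or 100 nM; DMEM/10% FBS.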

SW620 cells (KRAS G12V) = assay: Cell-based pERK HTRF assay in SW620 cell (Biological Example 4); settings: pERK HTRF
Summary of the method: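 SW620 cells were treated for 4 h with compound in a 9-point half-log series from 1 μM top (0.25% DMSO), then lysed. Phospho-ERK was detected by HTRF with d2 and Eu cryptate antibodies after 4–24 h at room temperature, read at 615 nm emission.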

[1] = target: T1, Avi-KRAS G12R (1-169) GppNHp/RAF1 RBD-3xFLAG (52-151) (Homo sapiens, UniProt P01116, G12R); assay: Raf1-KRAS G12R-GppNHP disruption HTRF assay (Biological Example 1); format: binding; settings: KRAS G12R-GppNHp/RAF1 RBD HTRF
T1 construct: Avi-KRAS G12R (1-169)
Summary of the method: (§1)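 Compounds were tested for disruption of KRAS–RAF1 RBD binding by HTRF in 50 mM Tris pH 7.5, 100 mM NaCl, 5 mM MgCl2, 0.1% BSA, 0.01% Tween, 10% DMSO. Protein mix was incubated 1 h at room temperature with shaking, then detection reagents added for another 1 h. Activity expressed as percent of DMSO control.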

[2] = target: T2, Avi-KRAS WT (1-169) GppNHp/RAF1 RBD-3xFLAG (52-151) (Homo sapiens, UniProt P01116); assay: Raf1-KRAS WT-GppNHP disruption HTRF assay (Biological Example 1); format: binding; settings: KRAS WT-GppNHp/RAF1 RBD HTRF
T2 construct: Avi-KRAS WT (1-169)
Summary of the method: as §1

[3] = target: T3, Avi-KRAS G12D (1-169) GppNHp/RAF1 RBD-3xFLAG (52-151) (Homo sapiens, UniProt P01116, G12D); assay: Raf1-KRAS G12D-GppNHP disruption HTRF assay (Biological Example 1); format: binding; settings: KRAS G12D-GppNHp/RAF1 RBD HTRF
T3 construct: Avi-KRAS G12D (1-169)
Summary of the method: as §1

[4] = target: T4, Avi-KRAS G12V (1-169) GppNHp/RAF1 RBD-3xFLAG (52-151) (Homo sapiens, UniProt P01116, G12V); assay: Raf1-KRAS G12V-GppNHP disruption HTRF assay (Biological Example 1); format: binding; settings: KRAS G12V-GppNHp/RAF1 RBD HTRF
T4 construct: Avi-KRAS G12V (1-169)
Summary of the method: as §1

[5] = Homo sapiens, SW-620, SW620 (KRAS G12V) cells

T1 sequence (P01116 1-169 isoform P01116-2 G12R): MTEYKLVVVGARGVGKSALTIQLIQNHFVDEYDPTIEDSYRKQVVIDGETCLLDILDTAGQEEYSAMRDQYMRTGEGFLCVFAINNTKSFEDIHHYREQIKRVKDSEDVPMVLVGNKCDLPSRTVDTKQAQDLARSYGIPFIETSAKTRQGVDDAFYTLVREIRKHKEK
T4 sequence (P01116 1-169 isoform P01116-2 G12V): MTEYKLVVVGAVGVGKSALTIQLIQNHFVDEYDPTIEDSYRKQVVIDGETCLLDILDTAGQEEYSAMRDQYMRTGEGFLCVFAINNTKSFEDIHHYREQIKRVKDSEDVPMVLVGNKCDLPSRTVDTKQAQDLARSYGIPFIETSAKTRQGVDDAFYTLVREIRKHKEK
T3 sequence (P01116 1-169 isoform P01116-2 G12D): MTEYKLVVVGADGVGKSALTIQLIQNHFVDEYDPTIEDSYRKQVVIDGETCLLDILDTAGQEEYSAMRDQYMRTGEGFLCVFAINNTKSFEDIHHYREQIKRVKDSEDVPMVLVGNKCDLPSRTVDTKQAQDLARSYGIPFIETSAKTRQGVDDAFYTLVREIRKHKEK
T2 sequence (P01116 1-169 isoform P01116-2): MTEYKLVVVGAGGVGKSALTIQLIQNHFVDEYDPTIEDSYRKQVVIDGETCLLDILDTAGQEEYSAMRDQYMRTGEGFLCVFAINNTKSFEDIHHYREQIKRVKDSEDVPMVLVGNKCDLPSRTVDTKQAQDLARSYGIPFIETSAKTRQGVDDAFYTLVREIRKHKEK

SMILES | IC50 (GP2d cells (KRAS G12D); GP2d) [µM] | IC50 (SW620 cells (KRAS G12V); [5]) [µM] | IC50 [1] [µM] | IC50 [2] [µM] | IC50 [3] [µM] | IC50 [4] [µM] | IC50 (GP2d cells (KRAS G12D)) [µM] | IC50 (SW620 cells (KRAS G12V); SW620 (KRAS G12V) cells) [µM]
CN(c1nc(OC[C@@]23CCCN2C[C@H](F)C3)nc2c(F)c(-c3ccc(F)c4sc(N)c(C#N)c34)c(C(F)(F)F)cc12)[C@@H]1C[C@H]2COC(=O)N2C1 [Compound 476] | < 0.1 | < 0.1 | 0.1 to 1 | 0.1 to 1 | 0.1 to 1 | 0.1 to 1 |  | 
CCN(c1nc(OC[C@@]23CCCN2C[C@H](F)C3)nc2c(F)c(-c3ccc(F)c4sc(N)c(C#N)c34)c(C(F)(F)F)cc12)[C@@H]1CCS(=O)(=O)C1 [Compound 477] | < 0.1 | < 0.1 | 0.1 to 1 | 0.1 to 1 | 0.1 to 1 | 0.1 to 1 |  | 
CN1C[C@@H](N(C)c2nc(OC[C@@]34CCCN3C[C@H](F)C4)nc3c(F)c(-c4ccc(F)c5sc(N)c(C#N)c45)c(C(F)(F)F)cc23)CCC1=O [Compound 478] | < 0.1 | < 0.1 | 1 to 10 | 0.1 to 1 | 0.1 to 1 | 1 to 10 |  | 
CN(c1nc(OC[C@@]23CCCN2C[C@H](F)C3)nc2c(F)c(-c3ccc(F)c4sc(N)c(C#N)c34)c(C(F)(F)F)cc12)[C@@H]1CC(=O)N2CCC[C@H]12 [Compound 479] | < 0.1 | < 0.1 | 0.1 to 1 | 0.1 to 1 | 0.1 to 1 | 0.1 to 1 |  | 
CC(=O)N1C[C@H]2OCCN(c3nc(OC[C@@]45CCCN4C[C@H](F)C5)nc4c(F)c(-c5ccc(F)c6sc(N)c(C#N)c56)c(C(F)(F)F)cc34)[C@H]2C1 [Compound 480] | < 0.1 | < 0.1 | 1 to 10 | 1 to 10 | 1 to 10 | 1 to 10 |  | 
CC(=O)N1C[C@@H]2OCCN(c3nc(OC[C@@]45CCCN4C[C@H](F)C5)nc4c(F)c(-c5ccc(F)c6sc(N)c(C#N)c56)c(C(F)(F)F)cc34)[C@@H]2C1 [Compound 481] | < 0.1 | 0.1 to 1 | 0.1 to 1 | 0.1 to 1 | 0.1 to 1 | 1 to 10 |  | 
CCN(c1nc(OC[C@@]23CCCN2C[C@H](F)C3)nc2c(F)c(-c3ccc(F)c4sc(N)c(C#N)c34)c(C(F)(F)F)cc12)[C@H]1CC(=O)N(C)C1 [Compound 482] | < 0.1 | < 0.1 | 0.1 to 1 | 0.1 to 1 | 0.1 to 1 | 0.1 to 1 |  | 
N#Cc1c(N)sc2c(F)ccc(-c3c(C(F)(F)F)cc4c(N5CCn6nc(C7CC7)cc6C5)nc(OC[C@@]56CCCN5C[C@H](F)C6)nc4c3F)c12 [Compound 483] | < 0.1 | < 0.1 | > 10 | > 10 | 1 to 10 | > 10 |  | 
N#Cc1nnn2c1CN(c1nc(OC[C@@]34CCCN3C[C@H](F)C4)nc3c(F)c(-c4ccc(F)c5sc(N)c(C#N)c45)c(C(F)(F)F)cc13)CC2 [Compound 486] | < 0.1 | < 0.1 | 0.1 to 1 | 0.1 to 1 | 0.1 to 1 | 0.1 to 1 |  | 
N#Cc1c(N)sc2c(F)ccc(-c3c(C(F)(F)F)cc4c(N5CCCN6C(=O)CC[C@H]6C5)nc(OC[C@@]56CCCN5C[C@H](F)C6)nc4c3F)c12 [Compound 487] | < 0.1 | < 0.1 | 1 to 10 | 0.1 to 1 | 0.1 to 1 | 1 to 10 |  | 
CCN(c1nc(OC[C@@]23CCCN2C[C@H](F)C3)nc2c(F)c(-c3ccc(F)c4sc(N)c(C#N)c34)c(C(F)(F)F)cc12)[C@@H]1CCN(C(=O)N(C)C)[C@@H]1C [Compound 488] | < 0.1 | < 0.1 | < 0.1 | 0.1 to 1 | < 0.1 | 0.1 to 1 |  | 
CCN(c1nc(OC[C@@]23CCCN2C[C@H](F)C3)nc2c(F)c(-c3ccc(F)c4sc(N)c(C#N)c34)c(C(F)(F)F)cc12)[C@@H]1CCN(C(=O)OC)[C@@H]1C [Compound 489] | < 0.1 | < 0.1 | 0.1 to 1 | 0.1 to 1 | 0.1 to 1 | 0.1 to 1 |  | 
N#Cc1c(N)sc2c(F)ccc(-c3c(C(F)(F)F)cc4c(N5CCCN6C(=O)CCC6C5)nc(OCC56CCCN5CC(F)C6)nc4c3F)c12 (stereo not drawn) [Compound 490] |  |  | 1 to 10 | 1 to 10 | 0.1 to 1 | 1 to 10 | 0.1 to 1 | 0.1 to 1
CCN(c1nc(OC[C@@]23CCCN2C[C@H](F)C3)nc2c(F)c(-c3ccc(F)c4sc(N)c(C#N)c34)c(C(F)(F)F)cc12)[C@H]1CC(=O)N(C2CC2)C1 [Compound 496] | < 0.1 | 0.1 to 1 | 1 to 10 | 1 to 10 | 0.1 to 1 | 1 to 10 |  | 
CN(C)C(=O)[C@H]1CC[C@@H](N(C)c2nc(OC[C@@]34CCCN3C[C@H](F)C4)nc3c(F)c(-c4ccc(F)c5sc(N)c(C#N)c45)c(C(F)(F)F)cc23)C1 [Compound 497] | < 0.1 | < 0.1 | 1 to 10 | 1 to 10 | 0.1 to 1 | 1 to 10 |  | 
CN1CC(F)(F)C[C@H]1COc1nc(N2CC3CC(C2)O3)c2cc(C(F)(F)F)c(-c3ccc(F)c4sc(N)c(C#N)c34)c(F)c2n1 [Compound 498] | > 1 | > 1 | > 10 | > 10 | > 10 | > 10 |  | 
CC(C)C(=O)N1CC[C@](C)(N(C)c2nc(OC[C@@]34CCCN3C[C@H](F)C4)nc3c(F)c(-c4ccc(F)c5sc(N)c(C#N)c45)c(C(F)(F)F)cc23)C1 [Compound 499] | < 0.1 | < 0.1 | 1 to 10 | 1 to 10 | 0.1 to 1 | 1 to 10 |  | 
N#Cc1c(N)sc2c(F)ccc(-c3c(C(F)(F)F)cc4c(N5CCn6nc(C(=O)N7CC[C@H](O)C7)cc6C5)nc(OC[C@@]56CCCN5C[C@H](F)C6)nc4c3F)c12 [Compound 500] | < 0.1 | 0.1 to 1 | 0.1 to 1 | 0.1 to 1 | 0.1 to 1 | 0.1 to 1 |  | 
N#Cc1c(N)sc2c(F)ccc(-c3c(C(F)(F)F)cc4c(N5CCn6nc(C(=O)N7CC(O)C7)cc6C5)nc(OC[C@@]56CCCN5C[C@H](F)C6)nc4c3F)c12 [Compound 502] | < 0.1 | 0.1 to 1 | 0.1 to 1 | 0.1 to 1 | 0.1 to 1 | 0.1 to 1 |  | 
CC(=O)N1C[C@@H](N(C)c2nc(OC[C@@]34CCCN3C[C@H](F)C4)nc3c(F)c(-c4ccc(F)c5sc(N)c(C#N)c45)c(C(F)(F)F)cc23)C[C@H]1CC#N [Compound 503] | < 0.1 | 0.1 to 1 | 1 to 10 | 1 to 10 | 0.1 to 1 | 1 to 10 |  | 

Reference: patent publication US20260042764A1, “COMPOSITIONS AND METHODS FOR INHIBITION OF KRAS” (TheRas, Inc., priority 2022, published 2026)
